Results on 4 molecules are retold here after US12180176B2, “Fluorinated empathogens” (priority 2021, dated 2024).

SMILES strings stand for the structures.

In one data set the target is SERT (Homo sapiens, UniProt P31645). The note with it: functional assay; cited from earlier work.
For data set [1] the following is noted: human psychoactivity, literature; cited from earlier work.
Data set [2] can be described thus: Metabolic stability in human liver microsomes. It is filed as in vitro ADME. An excerpt:
Purpose: To determine the metabolic stability of a disclosed compound relative to its corresponding non-fluorinated analog. Metabolic stability assays measure the intrinsic clearance (CLint) of a compound, providing critical data needed to calculate other key pharmacokinetic parameters such as bioavailability and half-life (t1/2).
Methods: A high-throughput assay was used to determine metabolic stability of disclosed compounds and non-fluorinated analogs thereof in human liver microsomes. LC/MS analysis was used to quantify the percent compound remaining after incubation. The half-life (t1/2) was estimated from the slope of the initial linear range of the logarithmic curve of compound remaining (%) versus time, assuming first order kinetics.
For orientation: Liver microsomes are vesicles of endoplasmic reticulum, rich in cytochrome P450 enzymes.

Sequence of SERT (P31645 whole entry, species assumed): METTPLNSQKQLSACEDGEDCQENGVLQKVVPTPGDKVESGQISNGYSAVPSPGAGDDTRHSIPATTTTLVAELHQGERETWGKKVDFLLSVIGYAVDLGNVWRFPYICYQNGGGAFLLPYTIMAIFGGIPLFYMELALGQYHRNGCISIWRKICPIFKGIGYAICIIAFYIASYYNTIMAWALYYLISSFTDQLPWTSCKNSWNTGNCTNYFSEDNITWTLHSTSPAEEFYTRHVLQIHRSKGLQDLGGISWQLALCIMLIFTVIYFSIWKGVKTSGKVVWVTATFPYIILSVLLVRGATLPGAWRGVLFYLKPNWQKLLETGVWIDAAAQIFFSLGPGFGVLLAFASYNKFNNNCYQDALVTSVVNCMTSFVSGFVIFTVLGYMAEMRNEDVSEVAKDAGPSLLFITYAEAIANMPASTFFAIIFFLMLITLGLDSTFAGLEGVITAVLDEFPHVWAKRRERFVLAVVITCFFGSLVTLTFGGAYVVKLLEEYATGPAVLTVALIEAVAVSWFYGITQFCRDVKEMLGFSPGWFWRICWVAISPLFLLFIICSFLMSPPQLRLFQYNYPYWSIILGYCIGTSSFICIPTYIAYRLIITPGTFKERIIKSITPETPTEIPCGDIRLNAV

Consider `CC(N)Cc1ccc2c(c1)OC(F)(F)O2` (centres unmarked) [DiFMDA, Difluoromethylenedioxyamphetamine], for which the SERT affinity entry on SERT was “between that of MDA and MDMA”. In data set [1], the “active dose in humans” value was above 250 mg.

On to `CC(N)Cc1ccc2c(c1)OCO2` (centres unmarked) [MDA, 3,4-methylenedioxyamphetamine], for which the “active dose in humans” value in data set [1] is 80 to 160 mg.

Turning to `CC(Cc1ccc2c(c1)OCO2)NCCF.Cl` (centres unmarked) [MDEA-F], the percent compound remaining is given as 100.0% in data set [2] (Time 0.0); 81.80% in data set [2] (Time 15.00); 68.75% in data set [2] (Time 30.00); 65.35% in data set [2] (Time 45.00); 42.05% in data set [2] (Time 60.00 (one hour of incubation), listed as ASR-1004); 42% in data set [2] (Time 60.00 (one hour of incubation), listed as MIDEA-F). In addition, the “half-life (t1/2)” value in data set [2] (estimated from slope of log % remaining versus time) is “about 57 minutes”.

On to `CC(Cc1ccc2c(c1)OCO2)NCC(F)(F)F` (centres unmarked) [MDTFEA, 3,4-methylenedioxy-N-trifluoroethylamphetamine], for which the “active dose in humans” value in data set [1] is recorded as above 500 mg.
